Reference: patent publication US20080311103A1, “Anti-Inflammatory Peptides and Methods of Use Thereof” (YEDA RESEARCH AND DEVELOPMENT CO. LTD. at THE WEIZMANN …, priority 2004, published 2008)

Experiments:
BALB/C mice = assay: TNBS-induced colitis model of inflammatory bowel disease (IBD); format: in vivo, mouse; conditions: 50 μg/mouse SC daily; day 7 after TNBS
Procedure: BALB/C mice, which were anesthetized for 5-10 min, received by intrarectal administration, 30 μl of a solution of 2,4,6-trinitrobenzene sulfonic acid (TNBS; 100 mg/kg) dissolved in 0.9% NaCl and mixed with an equal volume of ethanol (50% ethanol). Animals were killed 7 days after TNBS administration.
Wound fluid peptides were administered once daily by subcutaneous (SC) administration starting 1 day before the induction of colitis and every day for the next 7 days as follows:
Treatment with the wound fluid peptides was evaluated at day 7 by determination of macroscopic inflammation scores. The colon of each mouse was examined under a dissecting microscope to evaluate the macroscopic lesions according to the Wallace criteria. The Wallace score lists macroscopic colon lesions on a scale from 0 to 10 based on features reflecting inflammation, such as hyperemia, thickening of the bowel, and extent of ulceration (Wallace, J. L., et al. 1989, Gastroenterology, 96:29).

NF-κB = assay: Nuclear translocation of NF-κB in T cells (Western blot); format: cell-based; conditions: peptide 100 ng/ml for 2 hours, then anti-CD3 mAb 24 hr; human T cells
Text: To address the modulatory role of the wound fluid peptides on the signal transduction cascade leading to regulation of T-cell secretion of TNF-α(and IFN-γ, the nuclear translocation of NF-κB was detected by probing nuclear and cytoplasmic T-cell extracts using mAb specific for the p65 subunit of NF-κB. The nuclear protein Lamin B was used as continuatively expressed control protein for the quantification of protein amounts.
Human T cells. T cells were purified from the peripheral blood of healthy human donors (Blood Bank; Tel-Hashomer, Israel). The whole blood was incubated (20 min, 22° C.) with RosetteSep™ human T-cell enrichment cocktail (StemCell Technologies, Vancouver, BC, Canada). The remaining unsedimented cells were then loaded onto Lymphocyte Separation Medium (ICN Biomedicals; Belgium), isolated by density centrifugation, and washed with PBS. The purified cells (>95% CD3^+ T cells) so obtained were cultured in RPMI containing antibiotics and 10% heat-inactivated FCS. Western blot analysis of T-cell nuclear extracts. Purified T cells (5×10^6) were preincubated with the peptides (100 ng/ml) for 2 hours (37° C. in a 7% CO2, humidified atmosphere). The cells were then replated in 24-well plates pre-coated with anti-CD3 mAb for 24 hr (37° C. in a 7% CO2, humidified atmosphere). T cells were lysed in 10 mM HEPES, 1.5 mM MgCl2, 1 mM dithiothreitol (DTT), 1 mM PMSF, 0.5% Nonidet P-40. The lysates were incubated on ice for 10 min and centrifuged at 2000 rpm for 10 min at 4° C. The supernatants (cytoplasmic extracts) were transferred and the pellet (nuclei) was suspended in buffer containing 30 mM HEPES, 450 mM NaCl, 25% Glycerol, 0.5 mM EDTA, 6 mM DTT, 12 mM MgCl2 1 mM PMSF, 10 μg/ml leupeptin, 10 μg/ml pepstatin, 1% phosphatase inhibitor cocktail, and the suspension was incubated on ice for 30 min. The lysates were cleared by centrifugation (30 min, 14×10^3 rpm, 4° C.), and the resulting supernatants analyzed for protein content. […]

[1] = test system: mice sensitized with oxazolone; format: in vivo, mouse; conditions: FIG. 1; peptides by implanted osmotic pump, 0.2 μg/hour for 7 days; ear measured 24 hours after oxazolone challenge; BALB/c mice
Procedure: Groups of 5 female inbred BALB/c mice (The Jackson Laboratory, Bar Harbor, Me.) were sensitized on the shaved abdominal skin with 2% oxazolone (100 μl) dissolved in acetone/olive oil [4:1 (vol/vol)] applied topically. Delayed type hypersensitivity (DTH) was elicited 5 days later by challenging the mice with 0.5% oxazolone in acetone/olive oil (10 μl given topically to each side of the ear). A constant area of the ear was measured immediately before and 24 hours after the challenge using a Mitutoyo engineer's micrometer. The percent inhibition of DTH is calculated as follows:
% Inhibition=[1-{(treated−negative control)/(positive control−negative control)}]×100.
The positive control is the DTH reaction to oxazolone elicited in sensitized mice without treatment. The negative control is the background swelling produced by the oxazolone antigen in naïve non-sensitized mice.
Peptides Nos. 1-5 were given to the mice by mini perfusion pumps (alzet osmotic pump model 2001), which contained the indicated peptide (40 μg; 200 μl). The pumps were implanted under the mouse skin one day before oxazolone sensitization and they released the peptide in a rate of 1 μl per hour (0.2 μg/hour) for 7 days.
Peptides Nos. 6-10 were given to the mice by subcutaneously injection (1 μg or 10 μg per mouse), every day, starting at one day before oxazolone sensitization and ending at day 5 post DTH initiation.

[2] = test system: lymph node cells of oxazalone-sensitized mice transferred to syngeneic recipient mice; assay: Adoptive transfer DTH assay; format: in vivo, mouse; conditions: lymph node cells incubated 20 hours with peptide (10 rig/ml), injected i.v. to recipient mice; ear swelling after 24 hours
Procedure: Female inbred BALB/c mice (The Jackson Laboratory, Bar Harbor, Me.) were sensitized on the shaved abdominal skin with 2% oxazalone (100 μl) dissolved in acetone/olive oil [4:1 (vol/vol)]. Two donor mice were sensitized for one recipient mouse. On day 5, lymph nodes were removed and single-cell suspensions of lymph node cells were prepared. Lymph node cells were incubated (20 hours) with either peptide No. 3 or peptide No. 5 (10 rig/ml) in RPMI 1640 containing 10% FCS. After the incubation, the cells were washed, resuspended with PBS and injected intravenously (40 million cells per mouse) to syngeneic recipient mice. The mice were immediately challenged with 0.5% oxazalone in acetone/olive oil (10 μl given topically to each side of the ear) to elicit DTH reactions. The increment of ear swelling was measured after 24 hours.

In the case of “WDNLEKETEGL [peptide No. 3, residues 96-106 of Apo A-I; identified in wound fluids, then synthesized]”, the “Wallace score (macroscopic inflammation score, scale 0 to 10)” value (BALB/C mice) is reported as 4.0±1.3, the “NF-κB translocation to the nucleus” value (NF-κB) is reported as “significant down-regulation” and the “inhibition of DTH response” value [1] is reported as about 40%. The “inhibition of adoptive transfer DTH response” value [2] was 80%.
